Measured values: patent US11395857B2, “Radiolabeled melanocortin 1 receptor-specific alpha-melanocyte-stimulating hormone analogues for imaging or therapy” (PROVINCIAL HEALTH SERVICES AUTHORITY, priority 2018, dated 2022)
Like-named read-outs stand apart in the source and are kept apart here.

Experiments:
B16F10 mouse melanoma = assay: Biodistribution of 177Lu-labeled αMSH analogues in mice bearing B16F10 mouse melanoma; format: in vivo, C57BL/6J mice; settings: C57BL/6J mice, B16F10 melanoma
Procedure: (§1) The B16-F10 mouse melanoma cells were cultured and inoculated in mice as described in Example 1.
(§2) For biodistribution studies, approximately 1-2 MBq of ^177Lu-labeled αMSH analogues via tail vein under anesthesia. At 1, 4, 24, and 120 h p.i., the mice were euthanized by CO2 inhalation. Organs/tissues were harvested and the radioactivity was measured as described in Example 1.

[1] = as above; format: in vivo, C57BL/6J mice; settings: mouse, iv, total radioactivity, C57BL/6J mice, B16F10 melanoma
Procedure: as §1, §2

CCCC[C@H](NC(=O)CN1CCC(NC(=O)[C@H](CCCCNC(=O)CN2CCN(CC(=O)O)CCN(CC(=O)O)CCN(CC(=O)O)CC2)NC(=O)[C@H](CCC(=O)O)NC(=O)CCCc2ccc(I)cc2)CC1)C(=O)N[C@H]1CC(=O)NCCCC[C@@H](C(N)=O)NC(=O)[C@H](Cc2c[nH]c3ccccc23)NC(=O)[C@H](CCCNC(=N)N)NC(=O)[C@@H](Cc2ccccc2)NC(=O)[C@H](Cc2c[nH]cn2)NC1=O [^177Lu-labeled CCZ01082, metal not drawn]
Biodistribution, B16F10 tumour (B16F10 mouse melanoma; 1 h p.i.): 13.3 ± 3.34 % ID/g
Biodistribution, B16F10 tumour (B16F10 mouse melanoma; 4 h p.i.): 20.8 ± 5.37 % ID/g
Biodistribution, B16F10 tumour (B16F10 mouse melanoma; 24 h p.i.): 7.59 ± 1.70 % ID/g
Biodistribution, B16F10 tumour (B16F10 mouse melanoma; 120 h p.i.): 0.79 ± 0.39 % ID/g
tissue uptake at 1 h ([1]; male, seminal glands, 1 h p.i., read-out: Biodistribution, Seminal glands): 0.48 ± 0.13 %ID/g
tissue uptake at 4 h ([1]; male, seminal glands, 4 h p.i., read-out: Biodistribution, Seminal glands): 0.32 ± 0.15 %ID/g
tissue uptake at 24 h ([1]; male, seminal glands, 24 h p.i., read-out: Biodistribution, Seminal glands): 0.1 ± 0.04 %ID/g
tissue uptake at 120 h ([1]; male, seminal glands, 120 h p.i., read-out: Biodistribution, Seminal glands): 0.04 ± 0.02 %ID/g
tissue uptake at 1 h ([1]; male, testes, 1 h p.i., read-out: Biodistribution, Testes): 1.3 ± 0.4 %ID/g
tissue uptake at 4 h ([1]; male, testes, 4 h p.i., read-out: Biodistribution, Testes): 0.75 ± 0.26 %ID/g
tissue uptake at 24 h ([1]; male, testes, 24 h p.i., read-out: Biodistribution, Testes): 0.32 ± 0.17 %ID/g
tissue uptake at 120 h ([1]; male, testes, 120 h p.i., read-out: Biodistribution, Testes): 0.2 ± 0.11 %ID/g
tissue uptake at 1 h ([1]; adrenal glands, 1 h p.i., read-out: Biodistribution, Adrenal glands): 2.62 ± 1.48 %ID/g
tissue uptake at 4 h ([1]; adrenal glands, 4 h p.i., read-out: Biodistribution, Adrenal glands): 1.31 ± 0.56 %ID/g
tissue uptake at 24 h ([1]; adrenal glands, 24 h p.i., read-out: Biodistribution, Adrenal glands): 0.41 ± 0.35 %ID/g
tissue uptake at 120 h ([1]; adrenal glands, 120 h p.i., read-out: Biodistribution, Adrenal glands): 0.33 ± 0.23 %ID/g
tissue uptake at 1 h ([1]; blood, 1 h p.i., read-out: Biodistribution, Blood): 8.32 ± 2.74 %ID/g
tissue uptake at 4 h ([1]; blood, 4 h p.i., read-out: Biodistribution, Blood): 2.82 ± 1.17 %ID/g
tissue uptake at 24 h ([1]; blood, 24 h p.i., read-out: Biodistribution, Blood): 0.33 ± 0.57 %ID/g
tissue uptake at 120 h ([1]; blood, 120 h p.i., read-out: Biodistribution, Blood): 0.03 ± 0.04 %ID/g
tissue uptake at 1 h ([1]; bone, 1 h p.i., read-out: Biodistribution, Bone): 0.84 ± 0.19 %ID/g
tissue uptake at 4 h ([1]; bone, 4 h p.i., read-out: Biodistribution, Bone): 0.51 ± 0.11 %ID/g
tissue uptake at 24 h ([1]; bone, 24 h p.i., read-out: Biodistribution, Bone): 0.31 ± 0.08 %ID/g
tissue uptake at 120 h ([1]; bone, 120 h p.i., read-out: Biodistribution, Bone): 0.17 ± 0.07 %ID/g
tissue uptake at 1 h ([1]; brain, 1 h p.i., read-out: Biodistribution, Brain): 0.13 ± 0.03 %ID/g
tissue uptake at 4 h ([1]; brain, 4 h p.i., read-out: Biodistribution, Brain): 0.06 ± 0.02 %ID/g
tissue uptake at 24 h ([1]; brain, 24 h p.i., read-out: Biodistribution, Brain): 0.01 ± 0.02 %ID/g
tissue uptake at 120 h ([1]; brain, 120 h p.i., read-out: Biodistribution, Brain): 0.01 ± 0.01 %ID/g
tissue uptake at 1 h ([1]; fat, 1 h p.i., read-out: Biodistribution, Fat): 0.61 ± 0.23 %ID/g
tissue uptake at 4 h ([1]; fat, 4 h p.i., read-out: Biodistribution, Fat): 0.39 ± 0.12 %ID/g
tissue uptake at 24 h ([1]; fat, 24 h p.i., read-out: Biodistribution, Fat): 0.1 ± 0.13 %ID/g
tissue uptake at 120 h ([1]; fat, 120 h p.i., read-out: Biodistribution, Fat): 0.05 ± 0.05 %ID/g
tissue uptake at 1 h ([1]; heart, 1 h p.i., read-out: Biodistribution, Heart): 2.03 ± 0.68 %ID/g
tissue uptake at 4 h ([1]; heart, 4 h p.i., read-out: Biodistribution, Heart): 0.8 ± 0.32 %ID/g
tissue uptake at 24 h ([1]; heart, 24 h p.i., read-out: Biodistribution, Heart): 0.18 ± 0.17 %ID/g
tissue uptake at 120 h ([1]; heart, 120 h p.i., read-out: Biodistribution, Heart): 0.09 ± 0.04 %ID/g
tissue uptake at 1 h ([1]; intestine, 1 h p.i., read-out: Biodistribution, Intestine): 1.34 ± 0.28 %ID/g
tissue uptake at 4 h ([1]; intestine, 4 h p.i., read-out: Biodistribution, Intestine): 2.91 ± 4.94 %ID/g
tissue uptake at 24 h ([1]; intestine, 24 h p.i., read-out: Biodistribution, Intestine): 0.43 ± 0.32 %ID/g
tissue uptake at 120 h ([1]; intestine, 120 h p.i., read-out: Biodistribution, Intestine): 0.08 ± 0.07 %ID/g
tissue uptake at 1 h ([1]; kidneys, 1 h p.i., read-out: Biodistribution, Kidneys): 11.7 ± 5.52 %ID/g
tissue uptake at 4 h ([1]; kidneys, 4 h p.i., read-out: Biodistribution, Kidneys): 11.6 ± 5.03 %ID/g
tissue uptake at 24 h ([1]; kidneys, 24 h p.i., read-out: Biodistribution, Kidneys): 8.63 ± 6.4 %ID/g
tissue uptake at 120 h ([1]; kidneys, 120 h p.i., read-out: Biodistribution, Kidneys): 1.98 ± 0.72 %ID/g
tissue uptake at 1 h ([1]; liver, 1 h p.i., read-out: Biodistribution, Liver): 3.45 ± 0.31 %ID/g
tissue uptake at 4 h ([1]; liver, 4 h p.i., read-out: Biodistribution, Liver): 3.83 ± 0.28 %ID/g
tissue uptake at 24 h ([1]; liver, 24 h p.i., read-out: Biodistribution, Liver): 2.41 ± 0.34 %ID/g
tissue uptake at 120 h ([1]; liver, 120 h p.i., read-out: Biodistribution, Liver): 0.9 ± 0.12 %ID/g
tissue uptake at 1 h ([1]; lungs, 1 h p.i., read-out: Biodistribution, Lungs): 5.11 ± 2.81 %ID/g
tissue uptake at 4 h ([1]; lungs, 4 h p.i., read-out: Biodistribution, Lungs): 2.46 ± 0.54 %ID/g
tissue uptake at 24 h ([1]; lungs, 24 h p.i., read-out: Biodistribution, Lungs): 0.42 ± 0.34 %ID/g
tissue uptake at 120 h ([1]; lungs, 120 h p.i., read-out: Biodistribution, Lungs): 0.54 ± 0.87 %ID/g
tissue uptake at 1 h ([1]; muscle, 1 h p.i., read-out: Biodistribution, Muscle): 0.79 ± 0.22 %ID/g
tissue uptake at 4 h ([1]; muscle, 4 h p.i., read-out: Biodistribution, Muscle): 0.39 ± 0.1 %ID/g
tissue uptake at 24 h ([1]; muscle, 24 h p.i., read-out: Biodistribution, Muscle): 0.06 ± 0.05 %ID/g
tissue uptake at 120 h ([1]; muscle, 120 h p.i., read-out: Biodistribution, Muscle): 0.03 ± 0.02 %ID/g
tissue uptake at 1 h ([1]; pancreas, 1 h p.i., read-out: Biodistribution, Pancreas): 1.14 ± 0.32 %ID/g
tissue uptake at 4 h ([1]; pancreas, 4 h p.i., read-out: Biodistribution, Pancreas): 0.52 ± 0.27 %ID/g
tissue uptake at 24 h ([1]; pancreas, 24 h p.i., read-out: Biodistribution, Pancreas): 0.17 ± 0.19 %ID/g
tissue uptake at 120 h ([1]; pancreas, 120 h p.i., read-out: Biodistribution, Pancreas): 0.09 ± 0.05 %ID/g
tissue uptake at 1 h ([1]; spleen, 1 h p.i., read-out: Biodistribution, Spleen): 2.1 ± 1.03 %ID/g
tissue uptake at 4 h ([1]; spleen, 4 h p.i., read-out: Biodistribution, Spleen): 1.46 ± 0.67 %ID/g
tissue uptake at 24 h ([1]; spleen, 24 h p.i., read-out: Biodistribution, Spleen): 1.05 ± 0.45 %ID/g
tissue uptake at 120 h ([1]; spleen, 120 h p.i., read-out: Biodistribution, Spleen): 0.65 ± 0.34 %ID/g
tissue uptake at 1 h ([1]; stomach, 1 h p.i., read-out: Biodistribution, Stomach): 0.89 ± 0.5 %ID/g
tissue uptake at 4 h ([1]; stomach, 4 h p.i., read-out: Biodistribution, Stomach): 1.65 ± 2.22 %ID/g
tissue uptake at 24 h ([1]; stomach, 24 h p.i., read-out: Biodistribution, Stomach): 1.17 ± 0.77 %ID/g
tissue uptake at 120 h ([1]; stomach, 120 h p.i., read-out: Biodistribution, Stomach): 0.19 ± 0.21 %ID/g
tissue uptake at 1 h ([1]; thyroid, 1 h p.i., read-out: Biodistribution, Thyroid): 3.41 ± 0.51 %ID/g
tissue uptake at 4 h ([1]; thyroid, 4 h p.i., read-out: Biodistribution, Thyroid): 3.86 ± 0.39 %ID/g
tissue uptake at 24 h ([1]; thyroid, 24 h p.i., read-out: Biodistribution, Thyroid): 4.03 ± 1.33 %ID/g
tissue uptake at 120 h ([1]; thyroid, 120 h p.i., read-out: Biodistribution, Thyroid): 0.86 ± 0.31 %ID/g
tissue to tissue ratio at 1 h ([1]; tumour/blood, 1 h p.i., read-out: Tumour/blood): 1.82 ± 0.82
tissue to tissue ratio at 4 h ([1]; tumour/blood, 4 h p.i., read-out: Tumour/blood): 8.59 ± 4.19
tissue to tissue ratio at 24 h ([1]; tumour/blood, 24 h p.i., read-out: Tumour/blood): 87.6 ± 47.8
tissue to tissue ratio at 120 h ([1]; tumour/blood, 120 h p.i., read-out: Tumour/blood): 52.9 ± 41.3
tissue to tissue ratio at 1 h ([1]; tumour/kidney, 1 h p.i., read-out: Tumour/kidney): 1.41 ± 0.71
tissue to tissue ratio at 4 h ([1]; tumour/kidney, 4 h p.i., read-out: Tumour/kidney): 2.05 ± 0.86
tissue to tissue ratio at 24 h ([1]; tumour/kidney, 24 h p.i., read-out: Tumour/kidney): 1.14 ± 0.5
tissue to tissue ratio at 120 h ([1]; tumour/kidney, 120 h p.i., read-out: Tumour/kidney): 0.42 ± 0.18
tissue to tissue ratio at 1 h ([1]; tumour/muscle, 1 h p.i., read-out: Tumour/muscle): 18.7 ± 8.13
tissue to tissue ratio at 4 h ([1]; tumour/muscle, 4 h p.i., read-out: Tumour/muscle): 57.7 ± 22.4
tissue to tissue ratio at 24 h ([1]; tumour/muscle, 24 h p.i., read-out: Tumour/muscle): 167 ± 88.7
tissue to tissue ratio at 120 h ([1]; tumour/muscle, 120 h p.i., read-out: Tumour/muscle): 38.9 ± 24
excreta dose per gram or mL at 1 h ([1]; urine, 1 h p.i.): 87.9 ± 48.2 %ID/g
excreta dose per gram or mL at 4 h ([1]; urine, 4 h p.i.): 113 ± 29.4 %ID/g
excreta dose per gram or mL at 24 h ([1]; urine, 24 h p.i.): 6.11 ± 1.66 %ID/g
excreta dose per gram or mL at 120 h ([1]; urine, 120 h p.i.): 1.21 ± 0.21 %ID/g
